What was measured:
[1] = Inhibition of human catalytic domain N-terminal GST tagged p70S6K (1 to 421 residues) expressed in baculovirus expression system using S6K2 peptide as substrate at 10 uM by mobility shift assay relative to control; details: condition weaver syndrome
[2] = molecular target: D(2) dopamine receptor (Homo sapiens) (UniProt P14416); assay: Inhibition of dopamine D2 receptor (unknown origin) at 10 uM by radioligand binding assay relative to control
[3] = molecular target: Vascular endothelial growth factor receptor 2 (Homo sapiens) (UniProt P35968); assay: Inhibition of human cytoplasmic domain N-terminal GST tagged KDR (790 to 1356 end residues) expressed in baculovirus expression system using CSKtide as substrate at 10 uM by mobility shift assay relative to control
[4] = molecular target: Kappa-type opioid receptor (Homo sapiens) (UniProt P41145); assay: Inhibition of KOR (unknown origin) at 10 uM by radioligand binding assay relative to control
[5] = molecular target: RAC-alpha serine/threonine-protein kinase (Homo sapiens) (UniProt P31749); assay: Inhibition of human catalytic domain N-terminal GST tagged AKT1 (104 to 480 end residues) expressed in baculovirus expression system using crosstide as substrate at 10 uM by mobility shift assay relative to control
[6] = molecular target: Histamine H1 receptor (Homo sapiens) (UniProt P35367); assay: Inhibition of H1 receptor (unknown origin) at 10 uM by radioligand binding assay relative to control
[7] = molecular target: Tyrosine-protein kinase ITK/TSK (Homo sapiens) (UniProt Q08881); assay: Inhibition of human cytoplasmic domain N-terminal GST tagged ITK (2 to 620 end residues) expressed in baculovirus expression system using Srctide as substrate at 10 uM by mobility shift assay relative to control
[8] = molecular target: MAP kinase-activated protein kinase 2 (Homo sapiens) (UniProt P49137); assay: Inhibition of full length human N-terminal GST tagged MAPKAPK2 1 to 400 end residues) expressed in baculovirus expression system using GS as peptide at 10 uM by mobility shift assay relative to control
Chain of MAP kinase-activated protein kinase 2 (Homo sapiens) (P49137 whole entry, looked up): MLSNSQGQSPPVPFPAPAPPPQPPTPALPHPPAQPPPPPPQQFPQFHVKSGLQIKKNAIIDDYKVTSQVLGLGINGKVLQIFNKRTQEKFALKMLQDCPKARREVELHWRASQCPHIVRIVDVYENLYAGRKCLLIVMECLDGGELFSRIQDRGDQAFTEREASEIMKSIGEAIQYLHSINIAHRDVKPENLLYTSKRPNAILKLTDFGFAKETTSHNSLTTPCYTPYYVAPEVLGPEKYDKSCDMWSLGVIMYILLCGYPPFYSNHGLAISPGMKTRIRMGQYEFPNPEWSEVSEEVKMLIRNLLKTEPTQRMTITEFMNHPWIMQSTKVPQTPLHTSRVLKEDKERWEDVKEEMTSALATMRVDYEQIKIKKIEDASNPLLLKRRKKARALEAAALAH

[9] = molecular target: Histone-lysine N-methyltransferase, H3 lysine-79 specific (Homo sapiens, UniProt Q8TEK3); assay: Inhibition of DOT1L (unknown origin) using [3H-SAM] as substrate incubated for 1 hr by scintillation proximity assay
[10] = molecular target: 5-hydroxytryptamine receptor 2B (Homo sapiens) (UniProt P41595); assay: Inhibition of 5-HT2B receptor (unknown origin) at 10 uM by radioligand binding assay relative to control
Chain of 5-hydroxytryptamine receptor 2B (Homo sapiens) (P41595 whole entry): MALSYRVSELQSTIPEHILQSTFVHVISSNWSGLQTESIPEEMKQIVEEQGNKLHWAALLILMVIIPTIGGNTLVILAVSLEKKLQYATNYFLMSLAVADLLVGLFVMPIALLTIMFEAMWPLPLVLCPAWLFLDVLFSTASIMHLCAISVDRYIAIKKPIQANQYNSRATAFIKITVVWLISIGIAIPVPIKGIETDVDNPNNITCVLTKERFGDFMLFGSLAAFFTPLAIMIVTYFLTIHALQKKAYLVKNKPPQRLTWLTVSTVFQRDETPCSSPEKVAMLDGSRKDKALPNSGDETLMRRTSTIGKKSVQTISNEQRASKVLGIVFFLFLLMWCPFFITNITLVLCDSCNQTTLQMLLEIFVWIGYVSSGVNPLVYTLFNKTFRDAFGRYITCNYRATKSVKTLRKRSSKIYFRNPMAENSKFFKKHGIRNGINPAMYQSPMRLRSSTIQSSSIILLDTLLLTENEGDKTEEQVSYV

[11] = molecular target: Serine/threonine-protein kinase 4 (Homo sapiens) (UniProt Q13043); assay: Inhibition of full length human N-terminal GST tagged MST1 (1 to 487 end residues) expressed in baculovirus expression system using IRS1 as substrate at 10 uM by mobility shift assay relative to control
[12] = molecular target: Beta-2 adrenergic receptor (Homo sapiens) (UniProt P07550); assay: Inhibition of Beta2 receptor (unknown origin) at 10 uM by radioligand binding assay relative to control
Chain of Beta-2 adrenergic receptor (Homo sapiens) (P07550 whole entry, looked up): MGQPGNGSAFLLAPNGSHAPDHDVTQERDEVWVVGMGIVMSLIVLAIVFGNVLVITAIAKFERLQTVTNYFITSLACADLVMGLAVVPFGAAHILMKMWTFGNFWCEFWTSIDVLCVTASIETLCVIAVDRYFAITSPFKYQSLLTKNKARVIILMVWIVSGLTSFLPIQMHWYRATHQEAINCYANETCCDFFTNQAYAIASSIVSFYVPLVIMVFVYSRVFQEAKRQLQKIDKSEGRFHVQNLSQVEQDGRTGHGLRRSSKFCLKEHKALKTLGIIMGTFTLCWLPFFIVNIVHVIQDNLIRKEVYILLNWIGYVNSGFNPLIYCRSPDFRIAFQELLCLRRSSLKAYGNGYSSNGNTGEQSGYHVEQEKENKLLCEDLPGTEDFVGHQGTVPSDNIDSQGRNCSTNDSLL

[13] = molecular target: D(3) dopamine receptor (Homo sapiens) (UniProt P35462); assay: Inhibition of dopamine D3 receptor (unknown origin) at 10 uM by radioligand binding assay relative to control
[14] = molecular target: Mitogen-activated protein kinase 9 (Homo sapiens) (UniProt P45984); assay: Inhibition of human catalytic domain N-terminal GST tagged JNK2 (1 to 364 residues) expressed in Escherichia coli expression system using modified Erktide as substrate at 10 uM by mobility shift assay relative to control
[15] = molecular target: 5-hydroxytryptamine receptor 7 (Homo sapiens) (UniProt P34969); assay: Inhibition of 5-HT7 receptor (unknown origin) at 10 uM by radioligand binding assay relative to control
Chain of 5-hydroxytryptamine receptor 7 (Homo sapiens) (P34969 whole entry): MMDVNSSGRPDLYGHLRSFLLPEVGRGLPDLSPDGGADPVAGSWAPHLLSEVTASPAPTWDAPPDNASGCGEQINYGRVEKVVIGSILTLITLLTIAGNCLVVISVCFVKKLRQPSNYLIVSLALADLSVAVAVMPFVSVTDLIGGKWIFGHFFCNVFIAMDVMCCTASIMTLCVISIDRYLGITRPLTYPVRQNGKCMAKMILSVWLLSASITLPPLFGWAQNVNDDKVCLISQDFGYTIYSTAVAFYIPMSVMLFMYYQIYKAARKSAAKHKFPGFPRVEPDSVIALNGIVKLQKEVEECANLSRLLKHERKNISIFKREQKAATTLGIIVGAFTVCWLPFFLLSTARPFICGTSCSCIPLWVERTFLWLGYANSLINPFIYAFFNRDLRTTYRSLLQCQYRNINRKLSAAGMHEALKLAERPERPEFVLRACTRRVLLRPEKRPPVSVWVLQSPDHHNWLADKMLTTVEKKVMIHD

[16] = molecular target: Muscarinic acetylcholine receptor M5 (Homo sapiens) (UniProt P08912); assay: Inhibition of M5 receptor (unknown origin) at 10 uM by radioligand binding assay relative to control
[17] = molecular target: Histone-lysine N-methyltransferase EZH2 (Homo sapiens, UniProt Q15910, Y641F); assay: Inhibition of EZH2 Y641F mutant (unknown origin) using HMT as substrate incubated for 60 mins by luminescence based analysis
Chain of Histone-lysine N-methyltransferase EZH2 (Homo sapiens, UniProt Q15910, Y641F) (Q15910 whole entry Y641F): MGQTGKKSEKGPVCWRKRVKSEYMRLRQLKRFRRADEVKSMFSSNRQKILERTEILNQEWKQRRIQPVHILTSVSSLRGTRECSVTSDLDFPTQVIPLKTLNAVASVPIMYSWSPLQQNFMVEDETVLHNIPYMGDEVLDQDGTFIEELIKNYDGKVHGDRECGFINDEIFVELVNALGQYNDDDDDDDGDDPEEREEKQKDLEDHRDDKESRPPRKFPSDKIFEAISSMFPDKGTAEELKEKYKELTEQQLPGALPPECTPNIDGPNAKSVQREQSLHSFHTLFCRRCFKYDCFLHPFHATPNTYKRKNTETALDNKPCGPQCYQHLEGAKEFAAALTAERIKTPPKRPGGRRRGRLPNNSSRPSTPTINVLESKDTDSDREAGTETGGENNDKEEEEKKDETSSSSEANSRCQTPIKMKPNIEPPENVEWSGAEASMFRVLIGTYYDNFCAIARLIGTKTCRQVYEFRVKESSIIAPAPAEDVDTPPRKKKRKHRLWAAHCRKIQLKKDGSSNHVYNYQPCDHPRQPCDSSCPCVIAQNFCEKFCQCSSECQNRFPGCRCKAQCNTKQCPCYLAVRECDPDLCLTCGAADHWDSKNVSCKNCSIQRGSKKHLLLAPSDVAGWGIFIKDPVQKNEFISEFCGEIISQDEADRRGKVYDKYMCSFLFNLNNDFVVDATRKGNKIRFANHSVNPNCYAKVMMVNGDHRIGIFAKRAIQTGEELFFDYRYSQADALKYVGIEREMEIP

[18] = molecular target: D(4) dopamine receptor (Homo sapiens) (UniProt P21917); assay: Inhibition of dopamine D4 receptor (unknown origin) at 10 uM by radioligand binding assay relative to control
[19] = organism: Homo sapiens; assay: Inhibition of BZP (unknown origin) at 10 uM by radioligand binding assay relative to control
[20] = molecular target: Histone-lysine N-methyltransferase EZH2 (Homo sapiens, UniProt Q15910)
Chain of Histone-lysine N-methyltransferase EZH2 (Homo sapiens, UniProt Q15910) (Q15910 whole entry): as the sequence (Q15910 whole entry Y641F) above, with F641Y counted along it
Description: Inhibition of human EZH2 in human MCF-10A cells assessed as reduction in H3K27me3 levels incubated for 72 hrs by In-cell western assay

[21] = molecular target: Testis-specific serine/threonine-protein kinase 1 (Homo sapiens) (UniProt Q9BXA7); assay: Inhibition of full length human N-terminal GST tagged TSSK1 (1 to 367 end residues) expressed in baculovirus expression system using GS as peptide at 10 uM by mobility shift assay relative to control
[22] = molecular target: Protein-tyrosine kinase 2-beta (Homo sapiens) (UniProt Q14289); assay: Inhibition of full length human N-terminal GST tagged PYK2 (1 to 967 end residues) expressed in baculovirus expression system using Blk/lyntide as substrate at 10 uM by mobility shift assay relative to control
[23] = molecular target: Muscarinic acetylcholine receptor M1 (Homo sapiens) (UniProt P11229); assay: Inhibition of M1 receptor (unknown origin) at 10 uM by radioligand binding assay relative to control
[24] = molecular target: Platelet-derived growth factor receptor alpha (Homo sapiens) (UniProt P16234); assay: Inhibition of human cytoplasmic domain N-terminal GST tagged PDGFR alpha (550 to 1089 residues) expressed in baculovirus expression system using CSKtide as substrate at 10 uM by mobility shift assay relative to control
[25] = molecular target: High affinity nerve growth factor receptor (Homo sapiens) (UniProt P04629); assay: Inhibition of human cytoplasmic domain N-terminal GST tagged TRKA (436 to 790 end residues) expressed in baculovirus expression system using CSKtide as substrate at 10 uM by mobility shift assay relative to control
Chain of High affinity nerve growth factor receptor (Homo sapiens) (P04629 33-796 limits assumed): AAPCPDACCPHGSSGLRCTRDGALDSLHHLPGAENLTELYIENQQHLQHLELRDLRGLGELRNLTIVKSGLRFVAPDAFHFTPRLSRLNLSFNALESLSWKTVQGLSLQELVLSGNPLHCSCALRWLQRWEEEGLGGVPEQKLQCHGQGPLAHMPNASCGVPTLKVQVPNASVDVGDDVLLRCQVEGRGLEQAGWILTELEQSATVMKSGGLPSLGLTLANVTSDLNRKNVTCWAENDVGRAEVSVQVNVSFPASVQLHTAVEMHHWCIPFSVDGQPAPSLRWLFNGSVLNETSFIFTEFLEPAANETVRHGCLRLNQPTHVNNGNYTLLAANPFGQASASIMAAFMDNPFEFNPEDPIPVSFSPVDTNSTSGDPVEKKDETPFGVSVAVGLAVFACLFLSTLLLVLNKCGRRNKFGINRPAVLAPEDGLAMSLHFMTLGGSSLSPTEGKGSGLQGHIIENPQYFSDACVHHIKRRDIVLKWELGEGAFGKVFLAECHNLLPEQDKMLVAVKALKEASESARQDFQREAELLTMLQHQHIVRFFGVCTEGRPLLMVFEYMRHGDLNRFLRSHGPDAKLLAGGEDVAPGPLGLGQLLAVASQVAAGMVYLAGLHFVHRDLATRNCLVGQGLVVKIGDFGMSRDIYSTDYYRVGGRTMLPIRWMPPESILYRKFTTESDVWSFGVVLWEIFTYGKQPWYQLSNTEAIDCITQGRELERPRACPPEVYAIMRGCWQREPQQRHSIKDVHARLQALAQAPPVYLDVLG

[26] = molecular target: Epidermal growth factor receptor (Homo sapiens) (UniProt P00533); assay: Inhibition of human cytoplasmic domain N-terminal GST tagged EGFR (669 to 1210 end residues) expressed in baculovirus expression system using Srctide as substrate at 10 uM by mobility shift assay relative to control
[27] = molecular target: Histone-lysine N-methyltransferase EHMT2 (Homo sapiens, UniProt Q96KQ7); assay: Inhibition of G9a (unknown origin) using [3H-SAM] as substrate incubated for 1 hr by scintillation proximity assay
[28] = molecular target: Inhibitor of nuclear factor kappa-B kinase subunit beta (Homo sapiens) (UniProt O14920); assay: Inhibition of truncated human N-terminal his-tagged IKK beta (1 to 662 residues) expressed in baculovirus expression system using modified IkappaB-alpha derived peptide as substrate at 10 uM by mobility shift assay relative to control
[29] = molecular target: DNA (cytosine-5)-methyltransferase 1 (Homo sapiens, UniProt P26358); assay: Inhibition of DNMT1 (unknown origin) using hemimethylated dsDNA as substrate incubated for 1 hr by scintillation proximity assay
Chain of DNA (cytosine-5)-methyltransferase 1 (P26358 whole entry): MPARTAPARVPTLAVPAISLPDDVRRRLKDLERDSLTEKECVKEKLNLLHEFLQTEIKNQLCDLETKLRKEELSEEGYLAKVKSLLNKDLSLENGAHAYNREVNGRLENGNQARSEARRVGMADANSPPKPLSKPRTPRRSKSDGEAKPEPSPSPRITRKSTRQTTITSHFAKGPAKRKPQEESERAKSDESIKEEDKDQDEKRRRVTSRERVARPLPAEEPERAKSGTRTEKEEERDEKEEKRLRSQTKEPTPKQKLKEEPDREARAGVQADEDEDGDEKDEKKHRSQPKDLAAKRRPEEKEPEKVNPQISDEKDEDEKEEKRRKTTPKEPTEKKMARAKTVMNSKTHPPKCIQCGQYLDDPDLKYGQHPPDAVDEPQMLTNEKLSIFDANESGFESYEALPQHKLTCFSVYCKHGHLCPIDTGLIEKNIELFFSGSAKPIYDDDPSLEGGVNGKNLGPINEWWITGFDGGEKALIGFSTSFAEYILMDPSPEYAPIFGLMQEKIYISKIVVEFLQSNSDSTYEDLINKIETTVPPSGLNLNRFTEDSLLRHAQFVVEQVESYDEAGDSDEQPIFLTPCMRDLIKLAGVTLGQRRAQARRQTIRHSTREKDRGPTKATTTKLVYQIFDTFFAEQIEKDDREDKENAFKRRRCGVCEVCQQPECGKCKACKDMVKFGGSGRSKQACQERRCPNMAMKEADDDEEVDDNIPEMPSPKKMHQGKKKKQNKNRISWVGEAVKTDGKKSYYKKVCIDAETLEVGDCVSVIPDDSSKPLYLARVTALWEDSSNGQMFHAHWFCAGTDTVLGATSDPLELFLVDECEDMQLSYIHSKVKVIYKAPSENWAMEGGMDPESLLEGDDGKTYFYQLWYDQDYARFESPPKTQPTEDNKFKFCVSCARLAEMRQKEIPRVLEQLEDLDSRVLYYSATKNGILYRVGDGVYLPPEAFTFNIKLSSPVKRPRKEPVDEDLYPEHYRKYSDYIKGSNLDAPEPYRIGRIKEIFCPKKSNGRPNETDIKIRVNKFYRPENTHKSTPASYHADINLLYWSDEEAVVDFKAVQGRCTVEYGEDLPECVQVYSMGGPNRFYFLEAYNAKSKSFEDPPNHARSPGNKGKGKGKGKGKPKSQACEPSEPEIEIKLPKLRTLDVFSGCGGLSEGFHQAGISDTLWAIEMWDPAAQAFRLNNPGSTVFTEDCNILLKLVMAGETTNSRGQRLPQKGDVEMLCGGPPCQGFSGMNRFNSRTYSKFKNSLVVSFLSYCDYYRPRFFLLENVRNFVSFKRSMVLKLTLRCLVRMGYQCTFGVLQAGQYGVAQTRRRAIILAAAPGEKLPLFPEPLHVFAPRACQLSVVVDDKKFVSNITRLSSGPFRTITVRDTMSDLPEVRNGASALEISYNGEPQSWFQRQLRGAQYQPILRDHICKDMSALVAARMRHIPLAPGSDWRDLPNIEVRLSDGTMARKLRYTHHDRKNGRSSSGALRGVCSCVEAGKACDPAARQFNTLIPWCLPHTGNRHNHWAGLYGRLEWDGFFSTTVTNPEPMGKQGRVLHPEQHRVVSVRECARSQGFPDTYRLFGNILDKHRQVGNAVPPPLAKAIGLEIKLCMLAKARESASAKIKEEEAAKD

[30] = molecular target: Sodium-dependent dopamine transporter (Homo sapiens) (UniProt Q01959); assay: Inhibition of DAT (unknown origin) at 10 uM by radioligand binding assay relative to control

CCCc1cc(C)[nH]c(=O)c1CNC(=O)c1cc(-c2ccc(N3CCN(C(C)C)CC3)nc2)cc2c1cnn2C(C)C
inhibition at 10 µM [1]: 6%
inhibition [2]: 9%
inhibition [3]: -2%
inhibition [4]: 34%
inhibition [5]: -6%
inhibition [6]: 16%
inhibition [7]: -2%
inhibition [8]: 4%
IC50 [9]: > 100 µM
inhibition [10]: -9%
inhibition [11]: -5%
inhibition [12]: 14%
inhibition [13]: 28%
inhibition [14]: 5%
inhibition [15]: -4%
inhibition [16]: 9%
IC50 [17]: < 0.015 µM
inhibition [18]: 2%
inhibition [19]: -6%
IC50 [20]: 0.124 µM
inhibition [21]: 5%
inhibition [22]: -5%
inhibition [23]: 19%
inhibition [24]: -5%
inhibition [25]: 7%
inhibition [26]: -3%
IC50 [27]: > 100 µM
inhibition [28]: -3%
IC50 [29]: > 100 µM
inhibition [30]: 36%

Reference: ChEMBL document CHEMBL5705896 (ACS Chem Biol, 2013)
